Assay results from US9108921B2, “Therapeutic compounds and compositions” (AGIOS PHARMACEUTICALS, INC, priority 2014, dated 2015).

Experiments:
[1] = target: PKR R510Q (Homo sapiens, UniProt P30613, R510Q); experiment: PKR Mutant Assay, AC50 against PKR R510Q; type: biochemical; details: mutant PKR R510Q enzyme
Procedure: (§1) • PKR or PKR mutant enzyme solution was diluted in assay buffer. • 2 μL of test compound was added into wells first, and then 180 μL reaction mix was added. • Reactions mixture with test compound was assembled except for ADP, and plates were stored for 60 minutes at room temperature. • 20 uL ADP was added to start reaction at room temperature and reaction progress was measured as changes in absorbance at 340 nm wavelength at room temperature.
(§2) Test Compound Preparation: • Test compound stock was made at 100× concentration in 100% DMSO (10 mM) • 1 to 3 dilutions were made for 11 points (i.e. 50 μl of first concentration added to 100 μl 100% DMSO to yield 3.33 mM, 50 μl of this added to 100 μl DMSO to yield 1.11 mM, and so forth) • 1 to 100 dilution into assay (2 μl in 200 μl) yielded starting concentration of 100 μM, decreasing 3 fold for 11 points. Assay Buffer: 100 mM KCl, 50 mM Tris 7.5, 5 mM MgCl2, 1 mM DTT, 0.03% BSA Reaction Mixture: PKR mutant enzyme: 80-400 ng/well; ADP: 0.22-1.65 mM; PEP: 0.1-0.5 mM; NADH: 180 uM; LDH: 0.5 units (Sigma#59023); DTT: 1 mM; BSA: 0.03%.

[2] = target: PKR R532W (Homo sapiens, UniProt P30613, R532W); experiment: PKR Mutant Assay, AC50 against PKR R532W; type: biochemical; details: mutant PKR R532W enzyme
PKR R532W, sequence (P30613 whole entry R532W): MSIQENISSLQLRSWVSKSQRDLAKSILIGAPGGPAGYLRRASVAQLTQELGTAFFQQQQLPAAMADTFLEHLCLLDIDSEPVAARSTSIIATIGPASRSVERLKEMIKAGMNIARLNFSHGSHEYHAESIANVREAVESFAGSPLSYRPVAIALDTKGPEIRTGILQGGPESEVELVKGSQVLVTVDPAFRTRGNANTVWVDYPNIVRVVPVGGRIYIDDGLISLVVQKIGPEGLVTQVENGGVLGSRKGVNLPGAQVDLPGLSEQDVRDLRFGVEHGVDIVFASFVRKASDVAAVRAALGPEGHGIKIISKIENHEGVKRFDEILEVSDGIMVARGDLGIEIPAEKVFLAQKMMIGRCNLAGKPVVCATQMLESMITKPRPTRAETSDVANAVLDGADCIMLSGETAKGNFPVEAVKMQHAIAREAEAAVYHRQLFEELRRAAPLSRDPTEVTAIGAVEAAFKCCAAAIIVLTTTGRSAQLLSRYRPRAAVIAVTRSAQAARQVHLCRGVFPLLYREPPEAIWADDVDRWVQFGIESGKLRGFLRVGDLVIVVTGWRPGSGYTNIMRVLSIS
Procedure: as §1, §2

[3] = target: T1, PKR WT (Homo sapiens, UniProt P30613); experiment: PKR WT enzymatic AC50 assay; type: biochemical; details: wild type PKR
T1 sequence (P30613 whole entry): as the sequence (P30613 whole entry R532W) above, with W532R counted along it
Procedure: as §1, §2

[4] = target: T1, PKR WT; experiment: PKR WT cell based AC50 assay; details: wild type PKR

PKR R510Q, sequence (P30613 whole entry R510Q): as the sequence (P30613 whole entry R532W) above, with R510Q, W532R counted along it

Structure (SMILES)	AC50 [1]	AC50 [2]	AC50 [3]	AC50 [4]
O=C(c1ccc(NS(=O)(=O)c2cccc3cccnc23)cc1)N1CCC(O)(c2cccnc2C(F)(F)F)CC1 [Compound 159, N-(4-(4-hydroxy-4-(2-(trifluoromethyl)pyridin-3-yl)piperidine-1-carbonyl)phenyl)quinoline-8-sulfonamide]	101 to 1000 nM	< 100 nM	< 100 nM	< 100 nM
CCCCC1(O)CCN(C(=O)c2ccc(NS(=O)(=O)c3cccc4cccnc34)cc2)CC1 [Compound 167, N-(4-(4-butyl-4-hydroxypiperidine-1-carbonyl)phenyl)quinoline-8-sulfonamide]	< 100 nM	< 100 nM	< 100 nM	< 100 nM
O=C(c1ccc(NS(=O)(=O)c2cccc3cccnc23)cc1)N1CCC(CO)(Cc2ccccc2)CC1 [Compound 149, N-(4-(4-benzyl-4-(hydroxymethyl)piperidine-1-carbonyl)phenyl)quinoline-8-sulfonamide]	–	< 100 nM	< 100 nM	< 100 nM
O=C(c1ccc(NS(=O)(=O)c2ccc(F)c3nccnc23)cc1)N1CCC(O)(c2ccccc2Cl)CC1 [Compound 234, N-(4-(4-(2-chlorophenyl)-4-hydroxypiperidine-1-carbonyl)phenyl)-8-fluoroquinoxaline-5-sulfonamide]	101 to 1000 nM	101 to 1000 nM	101 to 1000 nM	–
O=C(c1ccc(NS(=O)(=O)c2cccc3cccnc23)c(OC(F)(F)F)c1)N1CCC(O)(c2ccccc2Cl)CC1 [Compound 270]	1010 to 10000 nM	101 to 1000 nM	101 to 1000 nM	–
O=C(c1ccc(NS(=O)(=O)c2cccc3cccnc23)cc1)N1CCC(CO)(c2ccccc2)CC1 [Compound 238]	1010 to 10000 nM	101 to 1000 nM	101 to 1000 nM	–
CCC1(O)CCN(C(=O)c2ccc(NS(=O)(=O)c3cccc4cccnc34)cc2)CC1 [Compound 267]	1010 to 10000 nM	101 to 1000 nM	101 to 1000 nM	–
O=C(c1ccc(NS(=O)(=O)c2cccc3nccnc23)cc1)N1CCC(O)(CC2CC2)CC1 [Compound 188, N-(4-(4-(cyclopropylmethyl)-4-hydroxypiperidine-1-carbonyl)phenyl)quinoxaline-5-sulfonamide]	101 to 1000 nM	< 100 nM	< 100 nM	–
O=C(c1ccc(NS(=O)(=O)c2ccc(F)c3cccnc23)cc1)N1CCC(O)(Cc2ccccc2C(F)(F)F)CC1 [Compound 208, 5-fluoro-N-(4-(4-hydroxy-4-(2-(trifluoromethyl)benzyl)piperidine-1-carbonyl)phenyl)quinoline-8-sulfonamide]	101 to 1000 nM	< 100 nM	< 100 nM	–
O=C(c1ccc(NS(=O)(=O)c2cccc3nccnc23)c(F)c1)N1CCC(O)(c2ccccc2Cl)CC1 [Compound 251, N-(4-(4-(2-chlorophenyl)-4-hydroxypiperidine-1-carbonyl)-2-fluorophenyl)quinoxaline-5-sulfonamide]	101 to 1000 nM	101 to 1000 nM	101 to 1000 nM	–
CC(C)CC1(CO)CCN(C(=O)c2ccc(NS(=O)(=O)c3cccc4nccnc34)cc2)CC1 [Compound 219, N-(4-(4-(hydroxymethyl)-4-isobutylpiperidine-1-carbonyl)phenyl)quinoxaline-5-sulfonamide]	101 to 1000 nM	< 100 nM	< 100 nM	–
CS(=O)(=O)c1cccc(C2(O)CCN(C(=O)c3ccc(NS(=O)(=O)c4cccc5cccnc45)cc3)CC2)c1 [Compound 182, N-(4-(4-hydroxy-4-(3-(methylsulfonyl)phenyl)piperidine-1-carbonyl)phenyl)quinoline-8-sulfonamide]	1010 to 10000 nM	–	< 100 nM	< 100 nM
O=C(c1ccc(NS(=O)(=O)c2cccc3cccnc23)c(OC(F)F)c1)N1CCC(O)(c2ccccc2Cl)CC1 [Compound 263, N-(4-(4-(2-chlorophenyl)-4-hydroxypiperidine-1-carbonyl)-2-(difluoromethoxy)phenyl)quinoline-8-sulfonamide]	101 to 1000 nM	101 to 1000 nM	101 to 1000 nM	–
O=C(c1ccc(NS(=O)(=O)c2cccc3cccnc23)cc1)N1CCC(O)(c2cccc3c2OCCO3)CC1 [Compound 284]	1010 to 10000 nM	101 to 1000 nM	101 to 1000 nM	–
O=C(c1ccc(NS(=O)(=O)c2ccc(F)c3cccnc23)cc1)N1CCC(O)(c2cccc(F)c2F)CC1 [Compound 227, N-(4-(4-(2,3-difluorophenyl)-4-hydroxypiperidine-1-carbonyl)phenyl)-5-fluoroquinoline-8-sulfonamide]	101 to 1000 nM	101 to 1000 nM	101 to 1000 nM	–
N#Cc1cccc(C2(O)CCN(C(=O)c3ccc(NS(=O)(=O)c4cccc5cccnc45)cc3)CC2)c1 [Compound 278]	1010 to 10000 nM	101 to 1000 nM	101 to 1000 nM	–
COc1cccnc1C1(O)CCN(C(=O)c2ccc(NS(=O)(=O)c3cccc4cccnc34)cc2)CC1 [Compound 285]	> 10000 nM	101 to 1000 nM	101 to 1000 nM	–
O=C(c1ccc(NS(=O)(=O)c2ccc(F)c3cccnc23)cc1)N1CCC(O)(CC2CCC2)CC1 [Compound 201, N-(4-(4-(cyclobutylmethyl)-4-hydroxypiperidine-1-carbonyl)phenyl)-5-fluoroquinoline-8-sulfonamide]	101 to 1000 nM	< 100 nM	< 100 nM	–
CC(C)CC1(O)CCN(C(=O)c2ccc(NS(=O)(=O)c3ccc(F)c(N)c3N)cc2)CC1 [Compound 254, 2,3-diamino-4-fluoro-N-(4-(4-hydroxy-4-isobutylpiperidine-1-carbonyl)phenyl)benzenesulfonamide]	101 to 1000 nM	101 to 1000 nM	101 to 1000 nM	–
CC1(CC2(O)CCN(C(=O)c3ccc(NS(=O)(=O)c4cccc5scnc45)cc3)CC2)CC1 [Compound 132, N-(4-(4-hydroxy-4-((1-methylcyclopropyl)methyl)piperidine-1-carbonyl)phenyl)benzo[d]thiazole-4-sulfonamide]	< 100 nM	< 100 nM	< 100 nM	–
O=C(c1ccc(NS(=O)(=O)c2ccc(F)c3cccnc23)c(F)c1)N1CCC(O)(c2cccc(F)c2F)CC1 [Compound 277]	1010 to 10000 nM	101 to 1000 nM	101 to 1000 nM	–

More lines, now with the values ahead:

AC50 [1]	AC50 [2]	AC50 [3]	AC50 [4]	Structure (SMILES)
1010 to 10000 nM	101 to 1000 nM	101 to 1000 nM	–	O=C(c1cc(F)c(NS(=O)(=O)c2cccc3cccnc23)cc1F)N1CCC(O)(c2ccccc2)CC1 [Compound 290]
1010 to 10000 nM	101 to 1000 nM	101 to 1000 nM	–	CC(C)CC1(O)CCN(C(=O)c2ccc(NS(=O)(=O)c3cccc4csnc34)cc2)CC1 [Compound 376]
101 to 1000 nM	101 to 1000 nM	< 100 nM	–	O=C(c1ccc(NS(=O)(=O)c2cccc3ocnc23)cc1)N1CCC(O)(c2ccccc2Cl)CC1 [Compound 381, N-(4-(4-(2-chlorophenyl)-4-hydroxypiperidine-1-carbonyl)phenyl)benzo[d]oxazole-4-sulfonamide]
1010 to 10000 nM	101 to 1000 nM	101 to 1000 nM	–	Cc1nc2c(S(=O)(=O)Nc3ccc(C(=O)N4CCC(O)(c5ccccc5Cl)CC4)cc3)cccc2s1 [Compound 293]
> 10000 nM	1010 to 10000 nM	1010 to 10000 nM	–	CC(C)CC1(O)CCN(C(=O)c2ccc(NS(=O)(=O)c3cccn4ccnc34)cc2)CC1 [Compound 312]
101 to 1000 nM	101 to 1000 nM	101 to 1000 nM	–	CC(C)CC1(O)CCN(C(=O)c2ccc(NS(=O)(=O)c3ccc(F)c4scnc34)cc2)CC1 [Compound 372]
> 10000 nM	1010 to 10000 nM	1010 to 10000 nM	–	COc1nc(C(=O)N2CCC(O)(c3ccccc3)CC2)ccc1NS(=O)(=O)c1cccc2cccnc12 [Compound 304]
1010 to 10000 nM	101 to 1000 nM	101 to 1000 nM	–	O=C(c1ccc(NS(=O)(=O)c2ccc(F)c3scnc23)cc1)N1CCC(O)(c2ccccc2Cl)CC1 [Compound 378, N-(4-(4-(2-chlorophenyl)-4-hydroxypiperidine-1-carbonyl)phenyl)-7-fluorobenzo[d]thiazole-4-sulfonamide]
1010 to 10000 nM	1010 to 10000 nM	1010 to 10000 nM	–	CC(C)CC1(O)CCN(C(=O)c2ccc(NS(=O)(=O)c3cccc4[nH]c(=O)cnc34)cc2)CC1 [Compound 438]
> 10000 nM	1010 to 10000 nM	1010 to 10000 nM	–	CC1(O)CCN(C(=O)c2ccc(NS(=O)(=O)c3cccc4cccnc34)cc2)CC1 [Compound 296]
1010 to 10000 nM	101 to 1000 nM	101 to 1000 nM	–	O=C(c1ccc(NS(=O)(=O)c2ccc(F)c3scnc23)cc1)N1CCC(O)(c2ccccc2Cl)CC1 [Compound 368]
> 10000 nM	> 10000 nM	> 10000 nM	–	O=C(c1ccc(NS(=O)(=O)n2ccc3cccnc32)cc1)N1CCC(O)(c2ccccc2Cl)CC1 [Compound 318]
1010 to 10000 nM	101 to 1000 nM	101 to 1000 nM	–	O=C(c1ccc(NS(=O)(=O)c2cccc3cccnc23)cc1)N1CCC(O)(c2cccc(F)n2)CC1 [Compound 286]
